Measured values as given in PubChem BioAssay (NCI).
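Following 48 hours of exposure in 96-well plates, responses at five concentrations were used to interpolate endpoints linearly. Abbreviation: GI50, concentration required for 50% inhibition of growth. TGI is the concentration that stops growth completely.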

Tests used:
Experiment in all cases: NCI anticancer screen, dose series, 48 h
[1] = system: UO-31 renal
[2] = system: OVCAR-8 ovarian
[3] = system: NCI-H522 lung
[4] = system: SK-MEL-5 melanoma
[5] = system: MDA-MB-468 breast
[6] = system: MDA-MB-231 breast
[7] = system: LOX IMVI melanoma
[8] = system: SR leukemia
[9] = system: HOP-92 NSCLC
[10] = system: TK-10 renal
[11] = system: UACC-62 melanoma
[12] = system: RPMI-8226 leukemia
[13] = system: SW-620 colon
[14] = system: SF-295 CNS
[15] = system: CCRF-CEM leukemia
[16] = system: A549 NSCLC
[17] = system: 786-0 renal
[18] = system: K-562 leukemia
[19] = system: SN12C renal
[20] = system: EKVX NSCLC
[21] = system: NCI-H23 lung
[22] = system: SF-268 CNS
[23] = system: U251 CNS
[24] = system: HCC-2998 colon
[25] = system: SF-539 CNS
[26] = system: IGROV1 ovarian
[27] = system: MOLT-4 leukemia
[28] = system: SK-OV-3 ovarian
[29] = system: MDA-MB-435
[30] = system: HS 578T breast
[31] = system: NCI-H460 lung
[32] = system: A498 renal
[33] = system: OVCAR-4 ovarian
[34] = system: KM12 colon
[35] = system: UACC-257 melanoma
[36] = system: RXF 393 renal
[37] = system: SNB-19 CNS
[38] = system: PC-3 prostate
[39] = system: HT29 colon
[40] = system: ACHN renal
[41] = system: OVCAR-3 ovarian
[42] = system: NCI-H226 lung
[43] = system: MCF7 breast
[44] = system: HL-60(TB) leukemia
[45] = system: SK-MEL-2 melanoma
[46] = system: MALME-3M melanoma
[47] = system: SK-MEL-28 melanoma
[48] = system: BT-549 breast
[49] = system: OVCAR-5 ovarian
[50] = system: T-47D breast
[51] = system: M14 melanoma
[52] = system: COLO 205 colon
[53] = system: DU-145 prostate
[54] = system: CAKI-1 renal
[55] = system: NCI/ADR-RES ovarian
[56] = system: HCT-116 colon
[57] = system: HCT-15 colon
[58] = system: HOP-62 NSCLC

COc1ccc(C(=O)/C=C/c2ccccc2Br)cc1S(N)(=O)=O gave a GI50 [1] of 1.53 µM, a TGI [1] of 3.05 µM and a GI50 [2] of 2.62 µM. The TGI [2] was 8.33 µM, the GI50 [3] was 1.77 µM and the TGI [3] was 4.12 µM. For the same compound, the GI50 [4] was 7.78 µM, the TGI [4] was 20.5 µM and the GI50 [5] was 2.56 µM. For the same compound, the TGI [5] was 13.2 µM, the GI50 [6] was 2.09 µM and the TGI [6] was 4.69 µM. It also gave a GI50 [7] of 1.65 µM, a TGI [7] of 3.02 µM and a GI50 [8] of 1.48 µM. The TGI [8] was 4.43 µM, the GI50 [9] was 3.29 µM and the TGI [9] was 16 µM. The GI50 [10] was 3.29 µM, the TGI [10] was 11.9 µM and the GI50 [11] was 3.64 µM. It also gave a TGI [11] of 15.3 µM, a GI50 [12] of 2.3 µM and a TGI [12] of 6.84 µM. The GI50 [13] was 1.79 µM, the TGI [13] was 4.04 µM and the GI50 [14] was 4.13 µM. For the same compound, the TGI [14] was 16.1 µM, the GI50 [15] was 3.07 µM and the TGI [15] was 11.1 µM. The GI50 [16] was 2.67 µM, the TGI [16] was 8.9 µM and the GI50 [17] was 1.81 µM. For the same compound, the TGI [17] was 3.66 µM, the GI50 [18] was 1.85 µM and the TGI [18] was 5.09 µM. The GI50 [19] was 1.86 µM, the TGI [19] was 4.15 µM and the GI50 [20] was 9.86 µM. The TGI [20] was 21.8 µM, the GI50 [21] was 3.22 µM and the TGI [21] was 12.7 µM. It also gave a GI50 [22] of 3.66 µM, a TGI [22] of 14.6 µM and a GI50 [23] of 1.49 µM. For the same compound, the TGI [23] was 2.82 µM, the GI50 [24] was 2.9 µM and the TGI [24] was 12.4 µM. It also gave a GI50 [25] of 1.74 µM, a TGI [25] of 3.21 µM and a GI50 [26] of 2.76 µM. For the same compound, the TGI [26] was 10 µM, the GI50 [27] was 1.93 µM and the TGI [27] was 5 µM. The GI50 [28] was 12.9 µM, the TGI [28] was 26 µM and the GI50 [29] was 7.18 µM. It also gave a TGI [29] of 20.1 µM, a GI50 [30] of 8.91 µM and a TGI [30] of 72 µM. For the same compound, the GI50 [31] was 1.94 µM, the TGI [31] was 4.58 µM and the GI50 [32] was 11.4 µM. For the same compound, the TGI [32] was 24.1 µM, the GI50 [33] was 3.25 µM and the TGI [33] was 13.1 µM. It also gave a GI50 [34] of 1.87 µM, a TGI [34] of 4.01 µM and a GI50 [35] of 11.9 µM. For the same compound, the TGI [35] was 24.5 µM, the GI50 [36] was 1.91 µM and the TGI [36] was 4.38 µM. For the same compound, the GI50 [37] was 4.26 µM, the TGI [37] was 16 µM and the GI50 [38] was 4.28 µM. It also gave a TGI [38] of 16.9 µM, a GI50 [39] of 2.27 µM and a TGI [39] of 4.9 µM. For the same compound, the GI50 [40] was 1.84 µM, the TGI [40] was 3.56 µM and the GI50 [41] was 2.09 µM. It also gave a TGI [41] of 4.73 µM, a GI50 [42] of 2.47 µM and a TGI [42] of 6.96 µM. It also gave a GI50 [43] of 2.89 µM, a TGI [43] of 11.3 µM and a GI50 [44] of 2.64 µM. For the same compound, the TGI [44] was 17.2 µM, the GI50 [45] was 14.4 µM and the TGI [45] was 28.1 µM. It also gave a GI50 [46] of 10.8 µM, a TGI [46] of 22.7 µM and a GI50 [47] of 8.3 µM. The TGI [47] was 20.5 µM, the GI50 [48] was 4.56 µM and the TGI [48] was 16.8 µM. The GI50 [49] was 2.2 µM, the TGI [49] was 5.99 µM and the GI50 [50] was 3.57 µM. It also gave a TGI [50] of 15.8 µM, a GI50 [51] of 6.83 µM and a TGI [51] of 21.3 µM. For the same compound, the GI50 [52] was 2.21 µM, the TGI [52] was 4.49 µM and the GI50 [53] was 3.35 µM. It also gave a TGI [53] of 11.4 µM, a GI50 [54] of 4.24 µM and a TGI [54] of 16.2 µM. It also gave a GI50 [55] of 2.28 µM, a TGI [55] of 5.67 µM and a GI50 [56] of 1.52 µM. The TGI [56] was 3.02 µM, the GI50 [57] was 1.65 µM and the TGI [57] was 3.45 µM. For the same compound, the GI50 [58] was 2.41 µM and the TGI [58] was 7.39 µM.
